Source: US6458978B1, “Fluorous phosphines and process for their preparation” (Atofina Vlissingen B.V., priority 1998, dated 2002)

Tests used:
[1] = Solubility of dppe and dppe derivatives G{m,x} in perfluorinated and non-fluorinated solvents; format: physicochemical; settings: for solubility at room temperature, FC-72: FC-72: mixture of perfluorinated hexanes
[2] = Determination of partition coefficients of phosphines in fluorous biphasic systems (ICP-AAS on phosphorus); format: physicochemical; settings: 0° C., 1:1 mixture (v/v)
From the text: For applications in fluorous bi-phasic catalysis and for catalyst recycling by fluorous phase extraction techniques an important feature of the fluorous aryl phosphines and the derived catalytic complexes is the partition coefficient P(P=Cfluorous phase/Corganic phase. C=concentration) in fluorous bi-phasic systems.
11. Determination of Partition Coefficients
The partition coefficients were determinded by dissolving a known amount of phosphine (typically between 11 and 60 μmol) in a fluorous biphasic system either consisting of c-C6F11CF3 (2.000±0.002 mL) and n-pentane, n-octane or toluene (2.006±0.002 mL). The resulting mixture was stirred at 25° C. until all solid had dissolved and equilibrated in a water ice bath (1 h). An aliquot (0.500±0.002 mL) was removed from each layer by syringe. Analysis by ICP-AAS on phosphorus gave the amount of phosphine present, with an accuracy of ±0.3 ppm. A conservative estimate of the experimental error in the partition coefficient is ±1 in the last digit.

[3] = Hydrogenation of 1-octene under single phase conditions in α,α,α-trifluorotoluene
Procedure: To be able to directly compare the activities of fluorous derivatives H{1,6} and H{1,8} with non-fluorous [P(C6H4-4-SiMe3)3]3RhCl (H{0}) and the conventional Wilkinson catalyst (PPh3)3RhCl, homogeneous hydrogenation of 1-octene were carried out under single phase conditions in the hybrid solvent α,α,α-trifluorotoluene at atmospheric H2 pressures. Highest rates of hydrogen uptake (14.2 mol.L^−1.h^−1) were measured for 1c at relatively high rhodium and olefine concentrations (entry 2, Table 7). Under these conditions a zero-order dependence in [1-octene] was found up to ca 80% conversion resulting in a linear conversion versus time plot. In all other experiments ([Rh]=4.0-8.0 mM, [1-octene]0=1.46 M) rates of hydrogen uptake were lower (<11 mol.L^−1.h^−1) and conversion versus time plots corresponded to a rate law -d[1-octene]/dt=kobs.[1-octene] for >98% conversion allowing to evaluate catalyst activity in terms of the observed first order rate constant kobs. Since for these experiments the rates of dihydrogen uptake were well below the maximum value obtained in entry 2, diffusion limitation of H2 can be excluded. In addition to kobs, turn over frequencies (TOF in mol.mol^−1.h^−1) were derived from the tangent of a 4^thorder polynomal fit to conversion versus time plots at 25% conversion and serve as a measure of catalyst activity independent of any assumed kinetic relationship with substrate.
Catalytic reactions were carried out under single phase conditions in CF3C6H5 at 80° C. under 1 bar of hydrogen pressure. After >90% conversion (monitored by the H2 uptake) volatiles were distilled off and analyzed by GC. Activities (TOF) were determined for 25% conversion.

[4] = [Rh] 4.0 mM, [1-octene] 1.46 M, T = 80° C., p(H2) = 1 bar, α,α,α-trifluorotoluene
[5] = [Rh] 8.0 mM, [1-octene] 2.92 M, T = 80° C., p(H2) = 1 bar, α,α,α-trifluorotoluene

Compound	Fluorous partition coefficient P = cfluorous phase/corganic phase, toluene/c-C6F11CF3 [2]	Fluorous partition coefficient P = cfluorous phase/corganic phase, n-octane/c-C6F11CF3 [2]	Fluorous partition coefficient P = cfluorous phase/corganic phase, n-pentane/c-C6F11CF3 [2]	other results
C[Si](C)(CCC(F)(F)C(F)(F)C(F)(F)C(F)(F)C(F)(F)C(F)(F)F)c1ccc(P(CCP(c2ccc([Si](C)(C)CCC(F)(F)C(F)(F)C(F)(F)C(F)(F)C(F)(F)C(F)(F)F)cc2)c2ccc([Si](C)(C)CCC(F)(F)C(F)(F)C(F)(F)C(F)(F)C(F)(F)C(F)(F)F)cc2)c2ccc([Si](C)(C)CCC(F)(F)C(F)(F)C(F)(F)C(F)(F)C(F)(F)C(F)(F)F)cc2)cc1 [G{1,6}]	–	–	–	solubility at room temperature, THF [1]: + (+: >0.1 g/ml); solubility at room temperature, toluene [1]: + (+: >0.1 g/ml); solubility at room temperature, FC-72 [1]: − (−: <0.01 g/ml)
C[Si](C)(C)c1ccc(P(c2ccc([Si](C)(C)C)cc2)c2ccc([Si](C)(C)C)cc2)cc1 [D{0}, P(C6H4SiMe3-4)3, reference compound]	0.007	–	–	–
FC(F)(F)C(F)(F)C(F)(F)C(F)(F)C(F)(F)C(F)(F)C(F)(F)C(F)(F)CC[Si](CCC(F)(F)C(F)(F)C(F)(F)C(F)(F)C(F)(F)C(F)(F)C(F)(F)C(F)(F)F)(CCC(F)(F)C(F)(F)C(F)(F)C(F)(F)C(F)(F)C(F)(F)C(F)(F)C(F)(F)F)c1ccc(P(c2ccc([Si](CCC(F)(F)C(F)(F)C(F)(F)C(F)(F)C(F)(F)C(F)(F)C(F)(F)C(F)(F)F)(CCC(F)(F)C(F)(F)C(F)(F)C(F)(F)C(F)(F)C(F)(F)C(F)(F)C(F)(F)F)CCC(F)(F)C(F)(F)C(F)(F)C(F)(F)C(F)(F)C(F)(F)C(F)(F)C(F)(F)F)cc2)c2ccc([Si](CCC(F)(F)C(F)(F)C(F)(F)C(F)(F)C(F)(F)C(F)(F)C(F)(F)C(F)(F)F)(CCC(F)(F)C(F)(F)C(F)(F)C(F)(F)C(F)(F)C(F)(F)C(F)(F)C(F)(F)F)CCC(F)(F)C(F)(F)C(F)(F)C(F)(F)C(F)(F)C(F)(F)C(F)(F)C(F)(F)F)cc2)cc1 [D{3,8}]	1.0	4.8	7.0	–
C[Si](C)(C)c1ccc(P(CCP(c2ccc([Si](C)(C)C)cc2)c2ccc([Si](C)(C)C)cc2)c2ccc([Si](C)(C)C)cc2)cc1 [G{0}, (Me3SiC6H4-4)2PCH2CH2P(C6H4SiMe3-4)2, reference compound]	–	–	–	solubility at room temperature, THF [1]: + (+: >0.1 g/ml); solubility at room temperature, FC-72 [1]: − (−: <0.01 g/ml)
C[Si](CCC(F)(F)C(F)(F)C(F)(F)C(F)(F)C(F)(F)C(F)(F)F)(CCC(F)(F)C(F)(F)C(F)(F)C(F)(F)C(F)(F)C(F)(F)F)c1ccc(P(CCP(c2ccc([Si](C)(CCC(F)(F)C(F)(F)C(F)(F)C(F)(F)C(F)(F)C(F)(F)F)CCC(F)(F)C(F)(F)C(F)(F)C(F)(F)C(F)(F)C(F)(F)F)cc2)c2ccc([Si](C)(CCC(F)(F)C(F)(F)C(F)(F)C(F)(F)C(F)(F)C(F)(F)F)CCC(F)(F)C(F)(F)C(F)(F)C(F)(F)C(F)(F)C(F)(F)F)cc2)c2ccc([Si](C)(CCC(F)(F)C(F)(F)C(F)(F)C(F)(F)C(F)(F)C(F)(F)F)CCC(F)(F)C(F)(F)C(F)(F)C(F)(F)C(F)(F)C(F)(F)F)cc2)cc1 [G{2,6}]	–	–	–	solubility at room temperature, THF [1]: + (+: >0.1 g/ml); solubility at room temperature, FC-72 [1]: + (+: >0.1 g/ml)
FC(F)(F)C(F)(F)C(F)(F)C(F)(F)C(F)(F)C(F)(F)CC[Si](CCC(F)(F)C(F)(F)C(F)(F)C(F)(F)C(F)(F)C(F)(F)F)(CCC(F)(F)C(F)(F)C(F)(F)C(F)(F)C(F)(F)C(F)(F)F)c1ccc(P(c2ccc([Si](CCC(F)(F)C(F)(F)C(F)(F)C(F)(F)C(F)(F)C(F)(F)F)(CCC(F)(F)C(F)(F)C(F)(F)C(F)(F)C(F)(F)C(F)(F)F)CCC(F)(F)C(F)(F)C(F)(F)C(F)(F)C(F)(F)C(F)(F)F)cc2)c2ccc([Si](CCC(F)(F)C(F)(F)C(F)(F)C(F)(F)C(F)(F)C(F)(F)F)(CCC(F)(F)C(F)(F)C(F)(F)C(F)(F)C(F)(F)C(F)(F)F)CCC(F)(F)C(F)(F)C(F)(F)C(F)(F)C(F)(F)C(F)(F)F)cc2)cc1 [D{3,6}]	2.1	3.7	5.3	–
C[Si](C)(C)c1ccc([PH](c2ccc([Si](C)(C)C)cc2)(c2ccc([Si](C)(C)C)cc2)[Rh]([Cl])([PH](c2ccc([Si](C)(C)C)cc2)(c2ccc([Si](C)(C)C)cc2)c2ccc([Si](C)(C)C)cc2)[PH](c2ccc([Si](C)(C)C)cc2)(c2ccc([Si](C)(C)C)cc2)c2ccc([Si](C)(C)C)cc2)cc1 [H{0}, [P(C6H4-4-SiMe3)3]3RhCl]	–	–	–	TOF(25%), turn over frequency at 25% conversion [3, 4]: 1610 h⁻¹; TON (mole of olefin/mole of Rh) [3, 4]: 336; conversion [3, 4]: 92%; kobs (first order rate constant) [3, 4]: 7.5(2) h^−1; TOF(25%), turn over frequency at 25% conversion [3, 5]: 1910 h⁻¹; TON (mole of olefin/mole of Rh) [3, 5]: 361; conversion [3, 5]: 99%; kobs (zero order in olefin up to 80% conversion) [3, 5]: ^eZero order in olefin up to 80% conversion, kobs = 14.2(1) mol.L^−1.h^−1.; activity relative to Wilkinson's catalyst ([3]; derived from Table 7): > 1.5 times; Highest rate of hydrogen uptake ([3]; relatively high rhodium and olefine concentrations (entry 2, Table 7)): 14.2 mol/L/h

Second part, led by results:

Fluorous partition coefficient P = cfluorous phase/corganic phase, toluene/c-C6F11CF3 [2]	Fluorous partition coefficient P = cfluorous phase/corganic phase, n-octane/c-C6F11CF3 [2]	Fluorous partition coefficient P = cfluorous phase/corganic phase, n-pentane/c-C6F11CF3 [2]	Compound	other results
0.13	0.42	0.53	C[Si](C)(CCC(F)(F)C(F)(F)C(F)(F)C(F)(F)C(F)(F)C(F)(F)F)c1ccc(P(c2ccc([Si](C)(C)CCC(F)(F)C(F)(F)C(F)(F)C(F)(F)C(F)(F)C(F)(F)F)cc2)c2ccc([Si](C)(C)CCC(F)(F)C(F)(F)C(F)(F)C(F)(F)C(F)(F)C(F)(F)F)cc2)cc1 [D{1,6}]	–
3.8	6.6	2.0	C[Si](CCC(F)(F)C(F)(F)C(F)(F)C(F)(F)C(F)(F)C(F)(F)F)(CCC(F)(F)C(F)(F)C(F)(F)C(F)(F)C(F)(F)C(F)(F)F)c1ccc(P(c2ccc([Si](C)(CCC(F)(F)C(F)(F)C(F)(F)C(F)(F)C(F)(F)C(F)(F)F)CCC(F)(F)C(F)(F)C(F)(F)C(F)(F)C(F)(F)C(F)(F)F)cc2)c2ccc([Si](C)(CCC(F)(F)C(F)(F)C(F)(F)C(F)(F)C(F)(F)C(F)(F)F)CCC(F)(F)C(F)(F)C(F)(F)C(F)(F)C(F)(F)C(F)(F)F)cc2)cc1 [D{2,6}, P[C6H4Si(CH2CH2C6F13)2Me-4]3]	–
3.8	11	3.3	C[Si](CCC(F)(F)C(F)(F)C(F)(F)C(F)(F)C(F)(F)C(F)(F)C(F)(F)C(F)(F)F)(CCC(F)(F)C(F)(F)C(F)(F)C(F)(F)C(F)(F)C(F)(F)C(F)(F)C(F)(F)F)c1ccc(P(c2ccc([Si](C)(CCC(F)(F)C(F)(F)C(F)(F)C(F)(F)C(F)(F)C(F)(F)C(F)(F)C(F)(F)F)CCC(F)(F)C(F)(F)C(F)(F)C(F)(F)C(F)(F)C(F)(F)C(F)(F)C(F)(F)F)cc2)c2ccc([Si](C)(CCC(F)(F)C(F)(F)C(F)(F)C(F)(F)C(F)(F)C(F)(F)C(F)(F)C(F)(F)F)CCC(F)(F)C(F)(F)C(F)(F)C(F)(F)C(F)(F)C(F)(F)C(F)(F)C(F)(F)F)cc2)cc1 [D{2,8}]	–
1.06	1.4	0.78	C[Si](C)(CCC(F)(F)C(F)(F)C(F)(F)C(F)(F)C(F)(F)C(F)(F)C(F)(F)C(F)(F)F)c1ccc(P(c2ccc([Si](C)(C)CCC(F)(F)C(F)(F)C(F)(F)C(F)(F)C(F)(F)C(F)(F)C(F)(F)C(F)(F)F)cc2)c2ccc([Si](C)(C)CCC(F)(F)C(F)(F)C(F)(F)C(F)(F)C(F)(F)C(F)(F)C(F)(F)C(F)(F)F)cc2)cc1 [D{1,8}]	–
